This note sets out measurements from patent publication US6197798A, “Amino-benzocycloalkane derivatives” (Novartis AG, priority 1999, dated 2001).

A word on the pIC50: it is −log10 of the IC50, conventionally taken in molar units. A high value points to a low IC50.

In assay [1] the test system is apolipoprotein B (Apo B) secretion, Hep G2 cells. Briefly: inhibition of the cellular secretion of Apo B (Hep G2 cells, ELISA). Type of assay: cell-based. To be noted: Homo sapiens, HepG2, 24 h, secreted Apo B by ELISA. As for the experimental part: The inhibition of the cellular secretion of Apo B is determined as follows:
Hep G2 cells are maintained in T-75 culture flasks (Corning) in Dulbecco's modified Eagles Medium (DMEM; Gibco-BRL) supplemented with 10% fetal calf serum Gibco-BRL) in a humidified atmosphere containing 5% carbon dioxide until they are confluent. For testing compounds, Hep G2 cells from the T-75 maintenance flasks are harvested and seeded in 96-well culture plates (Corning) and are grown for 72 hours (approximately 80% confluent). Test compound is dissolved at 1 mg/ml (w/v;1-5 mM) in dimethyl sulfoxide DMSO; Sigma) as stock solution. Prior to use, the stock solution of compound is diluted to 133 μM with DMSO and diluted further with growth medium (DMEM containing 10% fetal calf serum) to obtain 1 μM of compound in 100 μL of growth medium. 100 μL of growth medium containing the test compound is added to separate wells of a 96-well culture plate containing Hep G2 cells. For testing dose response of compound, a stock solution of test compound in DMSO is made at 665 μM and various dilutions from this solution are made in growth medium to obtain range of concentration of compound from 0.01 μM to 5 μM in 100 μL of growth medium. 100 μL of the growth medium containing different concentrations of test compound is added to separate wells containing Hep G2 cells. Twenty-four hours later, growth medium is collected and assayed by specific ELISA for apolipoprotein B (Apo B). At the same time Hep G2 cells from wells are assayed for protein (BioRad; cat. # 500-0006) and/or cell viability (Promega; CellTiter 96 Aqueous, cat. # G3581). Inhibitors are identified as compounds that decrease Apo B secretion into the medium without decreasing the total cellular protein and/or cell viability. […] Absorbance of each well is read at 405 nm using a Beckman Biomek workstation. […]

Assay [2] deals with T1, rat MTP (microsomal triglyceride transfer protein) (Rattus norvegicus, UniProt D4A1W8).
T1 construct: homogenate (120 g/210 mL) of rat liver; from tissue; host or cells: rat liver microsomes, deoxycholate-released soluble protein
T1 sequence (D4A1W8 22-896): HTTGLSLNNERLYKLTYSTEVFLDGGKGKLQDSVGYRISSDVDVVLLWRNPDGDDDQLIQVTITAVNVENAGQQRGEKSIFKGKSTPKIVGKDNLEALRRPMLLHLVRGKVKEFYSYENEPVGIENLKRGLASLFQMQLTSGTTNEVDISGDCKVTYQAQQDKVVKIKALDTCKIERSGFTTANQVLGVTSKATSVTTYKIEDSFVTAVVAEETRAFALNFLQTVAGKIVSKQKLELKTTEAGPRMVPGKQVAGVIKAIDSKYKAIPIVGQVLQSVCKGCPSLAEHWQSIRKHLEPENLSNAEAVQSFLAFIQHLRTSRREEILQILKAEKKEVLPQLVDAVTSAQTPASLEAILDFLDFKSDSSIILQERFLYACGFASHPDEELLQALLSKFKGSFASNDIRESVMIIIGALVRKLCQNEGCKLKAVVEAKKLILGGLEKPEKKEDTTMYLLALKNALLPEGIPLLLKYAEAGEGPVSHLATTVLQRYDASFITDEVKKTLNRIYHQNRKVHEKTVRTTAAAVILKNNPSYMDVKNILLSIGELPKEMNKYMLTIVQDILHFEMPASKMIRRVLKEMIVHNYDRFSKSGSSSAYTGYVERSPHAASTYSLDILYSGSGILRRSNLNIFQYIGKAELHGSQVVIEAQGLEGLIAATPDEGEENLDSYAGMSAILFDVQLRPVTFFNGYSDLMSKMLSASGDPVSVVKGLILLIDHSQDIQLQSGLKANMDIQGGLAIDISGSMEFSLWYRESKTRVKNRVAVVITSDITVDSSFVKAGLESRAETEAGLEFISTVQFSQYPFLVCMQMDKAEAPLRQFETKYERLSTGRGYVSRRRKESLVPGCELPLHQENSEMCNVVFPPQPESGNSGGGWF
T1 sequence (P04785 20-509 partner): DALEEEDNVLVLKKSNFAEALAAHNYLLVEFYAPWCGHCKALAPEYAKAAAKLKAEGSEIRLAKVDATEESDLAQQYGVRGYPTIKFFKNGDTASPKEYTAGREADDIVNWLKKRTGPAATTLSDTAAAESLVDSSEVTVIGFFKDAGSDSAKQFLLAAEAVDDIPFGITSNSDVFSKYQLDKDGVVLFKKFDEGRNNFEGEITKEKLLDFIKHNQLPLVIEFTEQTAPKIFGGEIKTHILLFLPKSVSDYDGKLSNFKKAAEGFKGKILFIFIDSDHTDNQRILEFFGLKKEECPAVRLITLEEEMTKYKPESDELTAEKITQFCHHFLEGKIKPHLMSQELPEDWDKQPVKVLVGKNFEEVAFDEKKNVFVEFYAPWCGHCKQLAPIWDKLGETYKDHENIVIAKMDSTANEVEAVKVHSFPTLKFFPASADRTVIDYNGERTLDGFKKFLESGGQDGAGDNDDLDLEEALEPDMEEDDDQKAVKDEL
Briefly: inhibition of MTP (triglyceride transfer from donor vesicles to acceptor vesicles). To be noted: soluble rat MTP, 37° C., 45 min, radiolabeled triglyceride transfer. It counts as biochemical. As for the experimental part: The inhibition of MTP is measured as follows:
Inhibition of the lipid transfer activity of MTP can be quantitated by measuring the inhibition of transfer of radiolabeled triglyceride from donor vesicles to acceptor vesicles in presence of soluble rat MTP. The procedure for preparing MTP is based on the method of Wetterau and Zilversmit (Biochim. Biophys. Acta (1986) 875:610). Briefly rats are decapitated under ether anesthesia. The liver is placed in ice cold sucrose buffer (contains 0.25M sucrose, 50 mM Tris Hcl, 1 mM EDTA, 0.02% sodium azide, pH 7.4) rinsed several times with the sucrose buffer.
All subsequent steps are performed on ice. A 57% homogenate (120 g/210 mL) of rat liver in 0.25 M sucrose buffer is prepared by using a Potter-Elvehjem homogenizer. The homogenate is then centrifuged at 4° C. for 30 min at 13,000×g to remove large cellular organells. The supernatant is then centrifuged for 90 min at 105,000×g to pellet the microsomes. The pellet is resuspended in 10 mM Tris-HCl buffer pH 8.6. and centrifuged for 90 min at 105,000×g. The washed pellet is then resuspended in 1 mM Tris buffer (pH 8.6) and centrifuged for 2 hrs. […] The protein content is measured using the Sigma Lowry micro total protein method and reagents (Sigma Cat. # 690A). […]
MTP activity is measured using a MTP transfer assay. […]

A short description of assay [3]: in vivo triglyceride lowering effect. To be noted: 10 mg/kg p.o. The source says: The in vivo serum triglyceride lowering effect of the compounds of the invention can be determined by measuring their effect on triglyceride levels in mice, rats or dogs according to methodology well known in the art, e.g., in a model of pre-established hypertriglyceridemia in fructose fed rats or in normolipidemic rats.

Assay [4] in a line: in vivo cholesterol lowering effect. To be noted: 10 mg/kg p.o. An excerpt:
The in vivo serum cholesterol lowering effect of the compounds of the invention can be determined by measuring their effect on cholesterol levels in mice, rats or dogs according to methodology well known in the art, e.g., in normolipidemic rats.

Structures are written as SMILES. pIC50: −log10 of the molar value.

On to `CS(=O)(=O)N[C@@H]1Cc2ccc(NC(=O)c3cc(F)ccc3-c3ccc(C(F)(F)F)cc3)cc2C1` [13(al)], for which, in assay [1], the pIC50 was ~8.52.
With `COC(=O)N[C@@H]1Cc2ccc(NC(=O)c3cccc(C)c3-c3ccc(C(F)(F)F)cc3)cc2C1` [13(i), (R)-6-methyl-4'-trifluoromethylbiphenyl-2-carboxylic acid (2-methoxycarbonylaminoindan-5-yl)-amide], the pIC50 in assay [1] was ~9.15; in assay [2] it was ~7.15. In assay [3], the lowers plasma triglycerides entry was “lowers both plasma triglycerides and cholesterol”. Moreover, the lowers plasma cholesterol result in assay [4] is “lowers both plasma triglycerides and cholesterol”.
Turning to `Cc1cccc(C(=O)Nc2ccc3c(c2)C[C@@H](NS(C)(=O)=O)C3)c1-c1ccc(C(F)(F)F)cc1` [Example 13b], the pIC50 in assay [1] was ~8.74; in assay [2] it was ~7.22.
